In assay [1] the target is Neuropeptide Y receptor type 1 (Homo sapiens, UniProt P25929). Format: functional.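 Also: HEK293 cells with a CNG channel challenged with NPY then isoproterenol; potency as antagonist that reverses NPY suppression of cAMP signal.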
Assay [2] has as its target T1, Heat shock factor protein 1 (Mus musculus, UniProt P38532).
T1 sequence (P38532 whole entry): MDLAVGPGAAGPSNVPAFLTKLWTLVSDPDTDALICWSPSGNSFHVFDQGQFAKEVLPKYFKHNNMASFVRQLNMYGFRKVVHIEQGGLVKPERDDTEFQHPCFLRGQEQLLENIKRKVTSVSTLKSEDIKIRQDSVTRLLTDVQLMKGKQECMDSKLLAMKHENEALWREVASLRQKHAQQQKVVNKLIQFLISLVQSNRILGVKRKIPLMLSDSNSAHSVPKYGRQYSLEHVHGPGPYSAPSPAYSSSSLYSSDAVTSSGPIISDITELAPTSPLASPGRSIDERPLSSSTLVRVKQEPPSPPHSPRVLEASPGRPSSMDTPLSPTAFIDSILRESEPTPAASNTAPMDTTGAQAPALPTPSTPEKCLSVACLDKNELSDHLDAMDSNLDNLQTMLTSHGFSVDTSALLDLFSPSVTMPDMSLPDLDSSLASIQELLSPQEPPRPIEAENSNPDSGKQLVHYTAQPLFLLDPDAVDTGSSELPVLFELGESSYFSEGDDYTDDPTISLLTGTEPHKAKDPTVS
Kind of assay: enhancement of HSF1-driven luciferase signal – cell-based, NIH3T3, luminescence, dose retest, confirmation (AID 435004).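 Also: stress induced by proteasome inhibitor MG132 added 30 min after compound; luciferase reporter driven by HSF1 response element in NIH3T3 cells; actives raise luminescence as potentiators of the MG132 stress response.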 Format: functional.

In assay [3] the target is T2, Kappa-type opioid receptor (Homo sapiens, UniProt P41145). Format: functional.
T2 sequence (P41145 whole entry): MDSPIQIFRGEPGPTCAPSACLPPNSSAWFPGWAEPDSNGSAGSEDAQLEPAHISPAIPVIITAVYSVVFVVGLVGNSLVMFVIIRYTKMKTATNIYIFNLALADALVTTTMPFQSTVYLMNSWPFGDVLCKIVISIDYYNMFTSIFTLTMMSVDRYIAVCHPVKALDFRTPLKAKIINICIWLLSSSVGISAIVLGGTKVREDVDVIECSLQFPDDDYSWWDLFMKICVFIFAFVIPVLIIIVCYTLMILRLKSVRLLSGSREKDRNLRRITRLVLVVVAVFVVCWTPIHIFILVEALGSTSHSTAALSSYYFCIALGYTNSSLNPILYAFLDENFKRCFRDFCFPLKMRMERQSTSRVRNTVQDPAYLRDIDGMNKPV
The target of assay [4] is T2, Kappa-type opioid receptor. Format: functional. The source holds these as a separate data set.
Assay [5] deals with Neuropeptide Y receptor type 2 (Homo sapiens, UniProt P49146). Format: functional, cell-based.
In assay [6] the target is T3, Delta-type opioid receptor (Homo sapiens, UniProt P41143). Kind of assay: HTS Image-Based Screen for Agonists of the DOR Receptor. [Related pubchem assays (depositor defined):AID1777, AID1786, AID2133]. Format: functional.
T3 sequence (P41143 whole entry): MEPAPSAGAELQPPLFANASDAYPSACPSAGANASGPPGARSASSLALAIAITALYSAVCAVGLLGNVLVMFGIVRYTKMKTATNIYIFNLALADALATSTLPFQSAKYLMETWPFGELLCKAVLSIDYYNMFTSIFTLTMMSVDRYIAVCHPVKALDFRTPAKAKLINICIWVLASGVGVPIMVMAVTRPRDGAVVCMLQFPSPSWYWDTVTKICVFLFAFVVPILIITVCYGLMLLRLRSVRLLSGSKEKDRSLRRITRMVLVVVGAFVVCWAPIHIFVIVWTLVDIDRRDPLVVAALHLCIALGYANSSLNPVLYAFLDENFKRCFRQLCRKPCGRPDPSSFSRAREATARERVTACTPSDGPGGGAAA
The target of assay [7] is T3, Delta-type opioid receptor. The experiment in a line: DOR agonists, SAR follow-up, image-based (AID 2370). Type of assay: functional.
The target of assay [8] is T2, Kappa-type opioid receptor. The experiment in a line: kappa opioid receptor activation potency – imaging, image-based, SAR follow-up (AID 2359). Format: functional.
The target of assay [9] is T4, Mu-type opioid receptor (Homo sapiens, UniProt P35372). Kind of assay: HTS Image-Based Screen for Agonists of the MOR Receptor. [Related pubchem assays (depositor defined):AID1777, AID1785, AID1786, AID2133]. Type of assay: functional.
T4 sequence (P35372 whole entry): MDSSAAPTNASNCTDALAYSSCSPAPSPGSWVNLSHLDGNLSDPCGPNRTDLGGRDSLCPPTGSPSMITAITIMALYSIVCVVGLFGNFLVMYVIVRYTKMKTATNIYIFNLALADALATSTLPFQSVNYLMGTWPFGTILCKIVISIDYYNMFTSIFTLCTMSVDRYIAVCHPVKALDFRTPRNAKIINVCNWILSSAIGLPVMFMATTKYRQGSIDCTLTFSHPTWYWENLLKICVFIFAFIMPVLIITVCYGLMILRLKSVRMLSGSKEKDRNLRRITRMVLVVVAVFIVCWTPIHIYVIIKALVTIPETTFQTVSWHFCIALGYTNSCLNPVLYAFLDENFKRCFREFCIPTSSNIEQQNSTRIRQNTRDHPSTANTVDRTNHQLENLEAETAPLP
For assay [10], the target named is T2, Kappa-type opioid receptor. The experiment in a line: SAR analysis of small molecule agonists of the kappa opioid receptor via a luminescent beta-arrestin assay. [Related pubchem assays (depositor defined):AID1777, AID1786, AID1966, AID2133, AID2136, AID2348, AID2352, AID2357, AID2359, AID2370, AID2420, AID2478, AID2491, AID2492, AID2493, AID2497, AID2498, AID2500, AID449737, AID488822, AID488842]. Type of assay: functional.

Assay [11] addresses T4, Mu-type opioid receptor. Kind of assay: mu opioid receptor blockers – image-based, SAR follow-up (AID 2420).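 Also: compounds added before stimulation of receptor with agonist DAMGO.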 Type of assay: functional.
In assay [12] the target is T2, Kappa-type opioid receptor. The experiment in a line: kappa opioid receptor blockers, image-based, SAR follow-up (AID 2348). Format: functional.
Assay [13] has as its target T3, Delta-type opioid receptor. The experiment in a line: HTS Image-Based Screen for Antagonists of the DOR Receptor. [Related pubchem assays (depositor defined):AID1777, AID1785, AID1786, AID2133]. Format: functional.
Assay [14] deals with T3, Delta-type opioid receptor. The experiment in a line: delta opioid receptor blockers – image-based, SAR follow-up (AID 2357). Type of assay: functional.
The target of assay [15] is T4, Mu-type opioid receptor. Kind of assay: mu opioid receptor activators, image-based, SAR follow-up (AID 2352). Format: functional.
Assay [16] addresses T5, Eukaryotic translation initiation factor 4H (Homo sapiens, UniProt Q15056). Kind of assay: eIF4H binding inhibition – biochemical, uHTS, fluorescence polarization, translation initiation inhibitor project, primary screen (AID 2012).
Assay [17] deals with T5, Eukaryotic translation initiation factor 4H. The experiment in a line: inhibitors of translation initiation factor eIF4H – SAR follow-up (AID 435011). Type of assay: functional.
In assay [18] the target is T6, Polyadenylate-binding protein 1 (Homo sapiens, UniProt P11940). Kind of assay: blockers of PABP interaction with poly(A) – biochemical, fluorescence polarization, […] (AID 2014).
T6 sequence (P11940 whole entry): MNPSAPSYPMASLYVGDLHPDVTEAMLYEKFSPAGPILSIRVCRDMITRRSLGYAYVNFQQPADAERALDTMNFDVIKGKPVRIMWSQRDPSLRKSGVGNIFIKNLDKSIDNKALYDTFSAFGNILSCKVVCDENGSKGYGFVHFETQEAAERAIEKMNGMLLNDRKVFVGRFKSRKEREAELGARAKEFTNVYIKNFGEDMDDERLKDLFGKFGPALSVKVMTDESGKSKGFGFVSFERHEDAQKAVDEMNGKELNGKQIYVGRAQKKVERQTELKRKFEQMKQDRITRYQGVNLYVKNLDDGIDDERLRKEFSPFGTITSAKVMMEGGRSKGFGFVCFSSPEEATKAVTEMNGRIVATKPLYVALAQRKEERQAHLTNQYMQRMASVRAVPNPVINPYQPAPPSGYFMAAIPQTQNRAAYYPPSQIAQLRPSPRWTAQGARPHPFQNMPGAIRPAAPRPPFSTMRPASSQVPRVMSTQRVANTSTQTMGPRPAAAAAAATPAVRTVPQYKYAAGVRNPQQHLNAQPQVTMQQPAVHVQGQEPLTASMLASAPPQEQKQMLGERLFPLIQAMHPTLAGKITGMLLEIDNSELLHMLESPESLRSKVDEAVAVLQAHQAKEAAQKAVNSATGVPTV
In assay [19] the target is T6, Polyadenylate-binding protein 1. Kind of assay: SAR analysis for the identification of translation initiation inhibitors (PABP) via an Electrophoretic Mobility Shift Dose Response Assay. [Related pubchem assays (depositor defined):AID2012, AID2014, AID2030]. Format: functional. In general terms: A gel shift assay detects complexes by their altered migration in electrophoresis.

The next assay deals with Estrogen receptor beta (Homo sapiens, UniProt Q92731).
Chain of Estrogen receptor beta (Q92731 whole entry): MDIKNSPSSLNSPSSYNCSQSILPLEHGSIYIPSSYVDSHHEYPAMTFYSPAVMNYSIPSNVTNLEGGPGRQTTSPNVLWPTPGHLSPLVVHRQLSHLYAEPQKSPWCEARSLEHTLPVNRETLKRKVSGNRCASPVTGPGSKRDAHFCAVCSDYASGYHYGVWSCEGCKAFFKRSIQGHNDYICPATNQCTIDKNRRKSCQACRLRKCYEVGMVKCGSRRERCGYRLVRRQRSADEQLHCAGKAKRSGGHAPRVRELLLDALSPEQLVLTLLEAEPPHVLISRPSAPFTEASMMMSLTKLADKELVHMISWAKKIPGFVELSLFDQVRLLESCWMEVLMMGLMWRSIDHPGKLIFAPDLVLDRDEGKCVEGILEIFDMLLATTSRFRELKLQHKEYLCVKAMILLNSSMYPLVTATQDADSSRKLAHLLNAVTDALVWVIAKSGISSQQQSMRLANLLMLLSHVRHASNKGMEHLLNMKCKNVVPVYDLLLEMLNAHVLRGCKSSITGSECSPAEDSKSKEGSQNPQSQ
Assay [20] deals with T6, Polyadenylate-binding protein 1. The experiment in a line: PABP inhibition in translation initiation, SAR follow-up (AID 435018). Type of assay: functional.
For assay [21], the target named is T7, Runt-related transcription factor 1/Core-binding factor subunit beta (Homo sapiens, UniProt Q01196+Q13951). Kind of assay: Runt domain/CBFb-SMMHC interaction disruptors – biochemical, TR-FRET (AID 1438). Type of assay: protein assay. (Time-resolved FRET reads energy transfer from a long-lived donor to a nearby acceptor.)
T7 sequence (Q01196 whole entry, the tested form may be a part): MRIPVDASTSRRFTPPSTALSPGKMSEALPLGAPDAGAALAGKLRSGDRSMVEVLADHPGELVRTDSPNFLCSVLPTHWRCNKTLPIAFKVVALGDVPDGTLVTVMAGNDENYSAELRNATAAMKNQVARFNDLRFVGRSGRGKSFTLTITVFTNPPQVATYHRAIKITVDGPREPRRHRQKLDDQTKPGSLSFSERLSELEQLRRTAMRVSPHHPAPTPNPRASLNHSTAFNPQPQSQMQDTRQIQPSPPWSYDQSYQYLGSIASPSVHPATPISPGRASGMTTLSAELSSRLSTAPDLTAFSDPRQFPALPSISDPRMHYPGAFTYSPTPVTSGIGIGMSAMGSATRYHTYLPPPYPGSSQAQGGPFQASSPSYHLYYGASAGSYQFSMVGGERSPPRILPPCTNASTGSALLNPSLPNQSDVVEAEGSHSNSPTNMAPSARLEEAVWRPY
T7 sequence (Q13951 whole entry, the tested form may be a part): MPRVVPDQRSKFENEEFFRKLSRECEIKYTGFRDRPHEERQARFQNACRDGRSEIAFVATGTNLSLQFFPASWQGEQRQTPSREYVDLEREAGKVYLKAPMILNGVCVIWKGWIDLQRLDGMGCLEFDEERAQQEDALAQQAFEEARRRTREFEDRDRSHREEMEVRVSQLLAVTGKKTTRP
In assay [22] the target is T8, Corticotropin-releasing factor receptor 2/Corticotropin-releasing factor-binding protein (Homo sapiens, UniProt P24387+Q13324).
T8 sequence (Q13324 whole entry): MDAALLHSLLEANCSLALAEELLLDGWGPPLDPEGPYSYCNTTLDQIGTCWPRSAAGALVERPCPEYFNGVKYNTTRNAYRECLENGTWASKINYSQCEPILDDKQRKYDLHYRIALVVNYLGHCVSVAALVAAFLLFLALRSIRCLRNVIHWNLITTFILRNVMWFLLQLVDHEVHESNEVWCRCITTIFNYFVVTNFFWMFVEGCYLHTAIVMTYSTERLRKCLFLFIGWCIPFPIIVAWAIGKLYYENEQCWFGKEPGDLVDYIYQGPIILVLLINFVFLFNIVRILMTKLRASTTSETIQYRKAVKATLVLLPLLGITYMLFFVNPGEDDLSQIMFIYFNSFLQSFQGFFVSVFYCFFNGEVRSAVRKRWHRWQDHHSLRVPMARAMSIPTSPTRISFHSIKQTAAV
T8 sequence (P24387 whole entry): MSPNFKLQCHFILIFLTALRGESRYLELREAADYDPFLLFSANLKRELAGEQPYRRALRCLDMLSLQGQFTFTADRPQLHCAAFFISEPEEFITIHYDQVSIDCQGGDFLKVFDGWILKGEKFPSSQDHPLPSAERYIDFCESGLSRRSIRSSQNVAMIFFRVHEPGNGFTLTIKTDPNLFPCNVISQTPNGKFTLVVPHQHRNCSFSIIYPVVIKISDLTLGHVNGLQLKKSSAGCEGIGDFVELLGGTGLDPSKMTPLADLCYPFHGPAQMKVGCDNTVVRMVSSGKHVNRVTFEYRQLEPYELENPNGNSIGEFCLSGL
The experiment in a line: activators of CRF receptor 2 with binding protein – uHTS hits, confirmation (AID 602473). Format: functional. Particulars: read-out: EC50_Mean.

Assay [23] deals with T9, SUMO-activating enzyme (Homo sapiens, UniProt Q9UBT2). The experiment in a line: blockers of SAE1/SAE2–UBC9 SUMO transfer – biochemical, HTRF, uHTS, primary screen (AID 2006). Format: protein-complex assay.
T9 sequence (Q9UBE0 whole entry): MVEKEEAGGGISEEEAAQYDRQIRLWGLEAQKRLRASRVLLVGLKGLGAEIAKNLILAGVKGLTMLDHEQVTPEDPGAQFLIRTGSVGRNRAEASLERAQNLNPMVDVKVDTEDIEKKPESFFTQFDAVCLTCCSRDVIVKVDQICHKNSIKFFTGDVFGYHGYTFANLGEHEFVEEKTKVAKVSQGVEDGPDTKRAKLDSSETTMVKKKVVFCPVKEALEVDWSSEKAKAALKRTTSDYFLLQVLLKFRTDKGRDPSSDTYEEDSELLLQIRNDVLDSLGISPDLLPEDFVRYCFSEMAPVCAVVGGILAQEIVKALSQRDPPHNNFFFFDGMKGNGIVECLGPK
T9 sequence (Q9UBT2 whole entry): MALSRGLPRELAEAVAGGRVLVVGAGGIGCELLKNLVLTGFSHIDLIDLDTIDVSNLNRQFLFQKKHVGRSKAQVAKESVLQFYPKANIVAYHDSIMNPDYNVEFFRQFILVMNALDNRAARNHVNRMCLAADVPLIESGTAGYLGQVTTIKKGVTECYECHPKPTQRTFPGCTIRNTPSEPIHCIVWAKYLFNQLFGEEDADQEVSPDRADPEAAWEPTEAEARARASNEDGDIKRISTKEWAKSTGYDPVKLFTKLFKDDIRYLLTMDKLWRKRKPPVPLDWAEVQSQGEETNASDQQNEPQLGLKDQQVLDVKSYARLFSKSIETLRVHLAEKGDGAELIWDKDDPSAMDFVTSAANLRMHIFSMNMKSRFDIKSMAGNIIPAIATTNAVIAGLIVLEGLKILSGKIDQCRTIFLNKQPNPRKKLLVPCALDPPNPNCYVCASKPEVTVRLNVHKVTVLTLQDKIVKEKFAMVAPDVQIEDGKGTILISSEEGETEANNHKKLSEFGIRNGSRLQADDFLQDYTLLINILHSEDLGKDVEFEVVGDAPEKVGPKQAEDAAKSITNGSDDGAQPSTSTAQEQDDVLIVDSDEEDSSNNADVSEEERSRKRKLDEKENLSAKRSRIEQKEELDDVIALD
Assay [24] concerns the target T9, SUMO-activating enzyme. The experiment in a line: blockers of UBC9-mediated SUMO conjugation – biochemical, AlphaScreen, SUMOylation inhibitor project, confirmation (AID 2018). Format: functional. Background: In Alpha technology, singlet oxygen from a donor bead excites a nearby acceptor bead.
The target of assay [25] is T7, Runt-related transcription factor 1/Core-binding factor subunit beta. The experiment in a line: disruptors of Runt domain/CBFb-SMMHC interaction – biochemical, FRET, Cerulean-Runt, Venus-CBFb-SMMHC, uHTS, […] (AID 1434). Format: protein assay.
Assay [26] is described as follows: Counterscreen for AddAB inhibitors: absorbance-based bacterial cell-based high throughput dose response assay for inhibitors of bacterial viability. [Related pubchem assays (depositor defined):AID435030, AID449728, AID449731, AID488942, AID488955, AID488956]. Type of assay: functional.
The target in a further assay is Exodeoxyribonuclease V (Escherichia coli (strain K12), UniProt P04993+P07648+P08394). Kind of assay: RecBCD inhibition via phage-restricted bacterial growth – absorbance, V66 E. coli, mutant T4 phage, counter-screen for AddAB inhibitor project, dose response (AID 492957). Format: functional, cell-based, Escherichia coli str. K-12 substr. MG1655.

The IC50 is the concentration that gives 50% inhibition.

Active and inactive are the calls of the source.

Chain of Neuropeptide Y receptor type 1 (P25929 whole entry): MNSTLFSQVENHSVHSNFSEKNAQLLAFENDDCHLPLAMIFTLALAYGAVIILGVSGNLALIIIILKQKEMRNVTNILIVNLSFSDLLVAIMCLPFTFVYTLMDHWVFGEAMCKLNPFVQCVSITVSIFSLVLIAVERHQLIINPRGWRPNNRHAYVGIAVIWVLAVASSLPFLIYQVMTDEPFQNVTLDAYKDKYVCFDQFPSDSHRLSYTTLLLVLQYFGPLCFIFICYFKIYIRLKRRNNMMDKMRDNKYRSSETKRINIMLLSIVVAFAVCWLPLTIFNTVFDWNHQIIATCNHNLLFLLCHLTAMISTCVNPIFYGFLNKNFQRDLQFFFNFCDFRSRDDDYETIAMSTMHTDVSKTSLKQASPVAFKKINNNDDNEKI

For the compound `Brc1ccc(CSc2nnc(-c3ccccn3)n2Cc2ccco2)cc1`, the concentration for half-maximal inhibition (IC50) in assay [1] is 7.44 µM (active); in assay [5], 8.06 µM (active); on Mu-type opioid receptor [11], > 32 µM (inactive); in assay [12] it was > 32 µM (inactive); in assay [13] it was > 32 µM (inactive); in assay [14] it was > 32 µM (inactive). Further, the EC50 in assay [2] was 36.6 µM (active); in [3], 5.64 µM; in assay [4] it was 1.88 µM; in [6] it was > 32 µM (inactive); in [7] it was > 32 µM (inactive); in assay [8], 1.36 µM (active). The values for the EC50 (at Mu-type opioid receptor [9]; in assay [10]; on Mu-type opioid receptor [15]) were > 32 µM (inactive), 1.92 µM (active) and > 32 µM (inactive), respectively.

In the case of `CCOC(=O)N1CCC(NC(=O)c2cccc3c2C(=O)N(c2ccc(OC)cc2)C3)CC1`, the half-maximal inhibitory concentration (IC50) in assay [16] was 9.51 µM (active); in assay [17] it was 6.47 µM (active); in assay [18], 76.2 µM (active); in [19], 10 µM (active); against Estrogen receptor beta, > 50 µM (not active); in assay [20] it was > 100 µM (inactive).

With `Cc1ccc(S(=O)(=O)c2cc3c(=O)n4ccccc4nc3n(Cc3ccco3)c2=N)cc1`, the IC50 is 58.6 µM (inactive) in [21], 3.93 µM (active) on SUMO-activating enzyme [23], 13.4 µM (active) on SUMO-activating enzyme [24] and 5.08 µM (active) in [25]. In assay [22], the EC50 was > 53 µM (inactive).

Turning to `O=C(CSc1nc2ccccc2o1)Nc1ccc(N2CCOCC2)cc1`, the IC50 (in assay [26]; on Exodeoxyribonuclease V) was > 119 µM (inactive) throughout.

For the origin of these results see ChEMBL document CHEMBL1201862, “PubChem BioAssay data set” (2004).
